Usually IC50 stands for the point on the concentration scale where inhibition reaches its midpoint.

The subject of one data set is Marburgvirus. The experiment in a line: Antiviral activity against HIV-based lentiviral pseudotyped Marburgvirus harboring mucin domain deleted GP infected in HEK293T cells assessed as inhibition of viral entry preincubated with virus for 1 hr followed by cell infection and measured after 48 hrs by luminescence assay. In kind it is functional, organism-based. The note with it: Orthomarburgvirus, HEK-293T.

In data set [1] the test system is Ebolavirus. The experiment in a line: Antiviral activity against HIV-based lentiviral pseudotyped Ebolavirus harboring mucin domain deleted GP infected in HEK293T cells assessed as inhibition of viral entry preincubated with virus for 1 hr followed by cell infection and measured after 48 hrs by luminescence assay. The note with it: Orthoebolavirus, HEK-293T. The format is functional, organism-based.

Data set [2] is described as follows: Selectivity index, ratio of CC50 for HEK293T cells to IC50 for antiviral activity against HIV-based lentiviral pseudotyped Ebolavirus harboring mucin domain deleted GP infected in HEK293T cells assessed as inhibition of viral entry. In kind it is toxicity, cell-based. The settings on record: human, read-out: Ratio CC50/IC50.
Data set [3] can be described thus: Selectivity index, ratio of CC50 for HEK293T cells to IC50 for antiviral activity against HIV-based lentiviral pseudotyped Marburgvirus harboring mucin domain deleted GP infected in HEK293T cells assessed as inhibition of viral entry. In kind it is toxicity, cell-based. The settings on record: human, read-out: Ratio CC50/IC50.
In data set [4] the test system is Ebolavirus. The data set is described as follows: Antiviral activity against pseudotyped Ebolavirus harboring GP. The settings on record: Orthoebolavirus. The format is functional, organism-based.

On to `CCN1CCN(CCCC(=O)O[C@H]2C(C)(C)[C@H]3CC[C@]2(C)C3)CC1`, for which the IC50 was found to be 11.3 µM with Marburgvirus and 2.4 µM in the data set with Ebolavirus [1].
Regarding `C[C@@H]1[C@H]2C[C@@H](C[C@H]1OC(=O)CCCN1CCOCC1)C2(C)C`, the IC50 was 39 µM in the data set with Marburgvirus and 21 µM in the data set on Ebolavirus [1]. Also, the figures for the selectivity ratio in data set [2] and in data set [3] were 5 and 2, respectively.
Taken in the same sequence, the figures for `CC1CCN(CCC(=O)O[C@H]2C(C)(C)[C@H]3CC[C@]2(C)C3)CC1` were 22 µM, 3.9 µM, 48 and 8.
Consider `C[C@@H]1[C@H]2C[C@@H](C[C@H]1OC(=O)CCN1CCN(c3ccccc3)CC1)C2(C)C`, for which the IC50 stood at 27 µM with Marburgvirus and 54 µM in the data set on Ebolavirus [1]. Moreover, the selectivity ratio is 2 in data set [2] and 4 in data set [3].
Consider `CC1(C)[C@H]2CC[C@](C)(C2)[C@H]1OC(=O)CCN1CCCCC1`, for which the IC50 came to 31 µM with Marburgvirus and 17 µM in the data set with Ebolavirus [1]. Also, the results for the selectivity ratio in data set [2] and in data set [3] were 20 and 11, respectively.
As to `CCN1CCN(CC(=O)O[C@H]2C(C)(C)[C@H]3CC[C@]2(C)C3)CC1`, the IC50 with Marburgvirus came out at 30.1 µM; in the data set with Ebolavirus [1], 9.1 µM.
With `CCN1CCN(S(=O)(=O)C[C@]23CC[C@H](CC2=O)C3(C)C)CC1`, 91 µM corresponded to half-maximal inhibition in the data set with Ebolavirus [4] (IC50).
In the case of `C[C@@H]1[C@H]2C[C@@H](C[C@H]1OC(=O)CN1CCN(c3ccccc3)CC1)C2(C)C`, the IC50 was 25 µM in the data set on Marburgvirus and 9 µM in the data set on Ebolavirus [1]. In addition, the selectivity ratio worked out at 6 in data set [2] and 2 in data set [3].
For `CCN1CCN(CCC(=O)O[C@H]2C(C)(C)[C@H]3CC[C@]2(C)C3)CC1`, in that order: 25 µM, 8.1 µM, 44 and 14.
With `C[C@@H]1[C@H]2C[C@@H](C[C@H]1OC(=O)CCCN1CCN(c3ccccc3)CC1)C2(C)C`, the IC50 in the data set on Marburgvirus came out at 18 µM; in the data set with Ebolavirus [1], 7.8 µM. For the same compound, the selectivity ratio in data set [2] was found to be 8; in data set [3], 3.
As for `C[C@@H]1[C@H]2C[C@@H](C[C@H]1OC(=O)CN1CCOCC1)C2(C)C`, the selectivity ratio in data set [2] turned out to be 1. Besides, the IC50 with Ebolavirus [1] amounted to 106 µM.
As for `CC1(C)[C@H]2CC[C@](C)(C2)[C@H]1OC(=O)CN1CCOCC1`, the IC50 stood at 213 µM in the data set with Marburgvirus and 13 µM in the data set with Ebolavirus [1]. Further, the selectivity ratio was found to be 22 in data set [2] and 1 in data set [3].
Taken in the same sequence, the figures for `CC1(C)[C@H]2CC[C@](C)(C2)[C@H]1OC(=O)CN1CCCCC1` were 164 µM, 17.1 µM, 13 and 1.
Regarding `CC1(C)[C@H]2CC[C@](C)(C2)[C@H]1OC(=O)CCN1CCOCC1`, the IC50 with Marburgvirus was found to be 64.4 µM; in the data set with Ebolavirus [1] it was 57.9 µM.
`CC1(C)[C@H]2CC[C@](C)(C2)[C@H]1OC(=O)CN1CCN(c2ccccc2)CC1`: the figures for the IC50 in the data set on Marburgvirus and in the data set with Ebolavirus [1] were 56 µM and 5.8 µM, respectively. For the same compound, the selectivity ratio in data set [2] came to 17; in data set [3] it was 1.
As to `CC1(C)[C@@H]2CC[C@@]1(CS(=O)(=O)N1CCOCC1)C(=O)C2`, in the data set with Ebolavirus [4], the half-inhibitory concentration (IC50) came out at 0.9 µM.
Regarding `CC1(C)[C@H]2CC[C@](C)(C2)[C@H]1OC(=O)CCCN1CCCCC1`, the IC50 came to 13 µM in the data set on Marburgvirus and 1.9 µM in the data set with Ebolavirus [1].
For `CN1CCN(CCC(=O)O[C@H]2C(C)(C)[C@H]3CC[C@]2(C)C3)CC1`, the IC50 in the data set on Marburgvirus was 29 µM; in the data set with Ebolavirus [1], 10.1 µM. Also, the selectivity ratio in data set [2] was determined as 45; in data set [3], 16.
Consider `CN1CCN(CC(=O)O[C@H]2C(C)(C)[C@H]3CC[C@]2(C)C3)CC1`, for which the IC50 in the data set on Marburgvirus stood at 27.5 µM; in the data set with Ebolavirus [1], 20.4 µM.
With `C[C@@H]1[C@H]2C[C@@H](C[C@H]1OC(=O)CCCN1CCN(C)CC1)C2(C)C`, the figures for the IC50 in the data set on Marburgvirus and in the data set on Ebolavirus [1] were 24 µM and 2.8 µM, respectively. The selectivity ratio in data set [2] came to 58; in data set [3], 6.
As to `C[C@@H]1[C@H]2C[C@@H](C[C@H]1OC(=O)CN1CCN(C)CC1)C2(C)C`, the half-maximal inhibitory concentration (IC50) turned out to be 47.6 µM in the data set with Marburgvirus and 4.8 µM in the data set with Ebolavirus [1].
In the case of `C[C@@H]1[C@H]2C[C@@H](C[C@H]1OC(=O)CCN1CCN(C)CC1)C2(C)C`, the IC50 was determined as 13.9 µM with Marburgvirus and 4.9 µM in the data set with Ebolavirus [1].
With `CC1(C)[C@H]2CC[C@](C)(C2)[C@H]1OC(=O)CCCN1CCN(c2ccccc2)CC1`, the values for the IC50 in the data set on Marburgvirus and with Ebolavirus [1] were 6 µM and 0.54 µM, respectively. For the same compound, the selectivity ratio in data set [2] is 22; in data set [3], 10.
For `C[C@@H]1[C@H]2C[C@@H](C[C@H]1OC(=O)CCN1CCOCC1)C2(C)C`, in that order: 156 µM, 57 µM, 4 and 1.
Consider `CN1CCN(CCCC(=O)O[C@H]2C(C)(C)[C@H]3CC[C@]2(C)C3)CC1`, for which the IC50 is 20.7 µM with Marburgvirus and 3.1 µM in the data set on Ebolavirus [1].
Take `CC1(C)[C@@H]2CC[C@@]1(CS(=O)(=O)N1CCCCC1)C(=O)C2`: the IC50 in the data set on Ebolavirus [4] was determined as 60 µM.
For the compound `CC1(C)[C@H]2CC[C@](C)(C2)[C@H]1OC(=O)CCN1CCN(c2ccccc2)CC1`, the results for the IC50 in the data set on Marburgvirus and in the data set on Ebolavirus [1] were 7.3 µM and 10 µM, respectively. Also, the selectivity ratio was found to be 2 in data set [2] and 3 in data set [3].
Turning to `C[C@@H]1[C@H]2C[C@@H](C[C@H]1OC(=O)CCN1CCCCC1)C2(C)C`, the IC50 was 24 µM in the data set on Marburgvirus and 14.3 µM in the data set with Ebolavirus [1]. In addition, the selectivity ratio in data set [2] came to 23; in data set [3], 13.
Turning to `CN1CCN(S(=O)(=O)C[C@]23CC[C@H](CC2=O)C3(C)C)CC1`, the IC50 in the data set with Ebolavirus [4] amounted to 540 µM.
On to `CC1CCN(CCCC(=O)O[C@H]2C(C)(C)[C@H]3CC[C@]2(C)C3)CC1`, for which the IC50 with Marburgvirus amounted to 26.4 µM; with Ebolavirus [1] it was 2.8 µM.
`CC1CCN(CC(=O)O[C@H]2C(C)(C)[C@H]3CC[C@]2(C)C3)CC1`: the figures for the IC50 in the data set on Marburgvirus and in the data set with Ebolavirus [1] were 20.4 µM and 20.5 µM, respectively.
In the case of `C[C@@H]1[C@H]2C[C@@H](C[C@H]1OC(=O)CN1CCCCC1)C2(C)C`, the IC50 with Marburgvirus was 107 µM; in the data set on Ebolavirus [1], 42 µM. Besides, the figures for the selectivity ratio in data set [2] and in data set [3] were 7 and 3, respectively.
Turning to `C[C@@H]1[C@H]2C[C@@H](C[C@H]1OC(=O)CCCN1CCCCC1)C2(C)C`, the IC50 is 9 µM with Marburgvirus and 4 µM in the data set on Ebolavirus [1]. For the same compound, the selectivity ratio came out at 30 in data set [2] and 13 in data set [3].
On to `CN(C)CCOc1ccc(/C(=C(/CCCl)c2ccccc2)c2ccccc2)cc1` [TOREMIFENE], for which the IC50 with Marburgvirus came out at 0.7 µM; in the data set with Ebolavirus [1], 0.2 µM.
`CC1(C)[C@H]2CC[C@](C)(C2)[C@H]1OC(=O)CCCN1CCOCC1`: the IC50 in the data set on Marburgvirus came out at 68 µM; in the data set on Ebolavirus [1], 6.5 µM. The selectivity ratio in data set [2] worked out at 40; in data set [3], 3.

These data come from ChEMBL document CHEMBL5579834 (Eur J Med Chem, 2024).
